Data published in ChEMBL document CHEMBL4334438, “Discovery of novel glycogen synthase kinase-3α inhibitors: Structure-based virtual screening, preliminary SAR and biological evaluation for treatment of acute myeloid leukemia” (Eur J Med Chem, 2019).

Columns and labels:
[1] = biological target: Dual specificity mitogen-activated protein kinase kinase 3 (Homo sapiens) (UniProt P46734); experiment: Inhibition of recombinant human MKK3 assessed as residual activity at 1 uM by scintillation counting based radiometry assay relative to control
[2] = biological target: Myosin light chain kinase, smooth muscle (Homo sapiens) (UniProt Q15746); experiment: Inhibition of recombinant human MLCK (1425 to 1771 residues) assessed as residual activity at 1 uM […] incubated for 40 mins in presence of [gamma-33ATP by scintillation counting based radiometry assay relative to control
[3] = tested on: Proto-oncogene tyrosine-protein kinase receptor Ret (Homo sapiens), P07949 [V804L]; experiment: Inhibition of recombinant human Ret V804L mutant (658 to end residues) assessed as residual activity at 1 uM using KKKSPGEYVNIEFG as substrate measured after 40 mins in presence of [gamma33P]ATP by scintillation counting method relative to control
[4] = tested on: Serine/threonine-protein kinase A-Raf (Homo sapiens), P10398 [Y301D,Y302D]; experiment: Inhibition of recombinant human A-Raf Y301D/Y302D mutant (273 to end residues) assessed as residual activity at 1 uM using myelin basic protein as substrate incubated for 40 mins in presence of [gamma-33ATP] by scintillation counting based radiometry assay relative to control
[5] = biological target: Tyrosine-protein kinase Lyn (Homo sapiens) (UniProt P07948); experiment: Inhibition of recombinant human Lyn assessed as residual activity at 1 uM using poly(Glu, Tyr) 4:1 as substrate after 40 mins in presence of [gamma-33ATP] by scintillation counting based radiometry assay relative to control
[6] = biological target: Tyrosine-protein kinase JAK3 (Homo sapiens) (UniProt P52333); experiment: Inhibition of human JAK3 (781 to end residues) assessed as residual activity at 1 uM using GGEEEEYFELVKKKK as substrate after 40 mins by [gamma-33ATP] radiometric assay relative to control
Sequence of Tyrosine-protein kinase JAK3 (Homo sapiens) (P52333 whole entry): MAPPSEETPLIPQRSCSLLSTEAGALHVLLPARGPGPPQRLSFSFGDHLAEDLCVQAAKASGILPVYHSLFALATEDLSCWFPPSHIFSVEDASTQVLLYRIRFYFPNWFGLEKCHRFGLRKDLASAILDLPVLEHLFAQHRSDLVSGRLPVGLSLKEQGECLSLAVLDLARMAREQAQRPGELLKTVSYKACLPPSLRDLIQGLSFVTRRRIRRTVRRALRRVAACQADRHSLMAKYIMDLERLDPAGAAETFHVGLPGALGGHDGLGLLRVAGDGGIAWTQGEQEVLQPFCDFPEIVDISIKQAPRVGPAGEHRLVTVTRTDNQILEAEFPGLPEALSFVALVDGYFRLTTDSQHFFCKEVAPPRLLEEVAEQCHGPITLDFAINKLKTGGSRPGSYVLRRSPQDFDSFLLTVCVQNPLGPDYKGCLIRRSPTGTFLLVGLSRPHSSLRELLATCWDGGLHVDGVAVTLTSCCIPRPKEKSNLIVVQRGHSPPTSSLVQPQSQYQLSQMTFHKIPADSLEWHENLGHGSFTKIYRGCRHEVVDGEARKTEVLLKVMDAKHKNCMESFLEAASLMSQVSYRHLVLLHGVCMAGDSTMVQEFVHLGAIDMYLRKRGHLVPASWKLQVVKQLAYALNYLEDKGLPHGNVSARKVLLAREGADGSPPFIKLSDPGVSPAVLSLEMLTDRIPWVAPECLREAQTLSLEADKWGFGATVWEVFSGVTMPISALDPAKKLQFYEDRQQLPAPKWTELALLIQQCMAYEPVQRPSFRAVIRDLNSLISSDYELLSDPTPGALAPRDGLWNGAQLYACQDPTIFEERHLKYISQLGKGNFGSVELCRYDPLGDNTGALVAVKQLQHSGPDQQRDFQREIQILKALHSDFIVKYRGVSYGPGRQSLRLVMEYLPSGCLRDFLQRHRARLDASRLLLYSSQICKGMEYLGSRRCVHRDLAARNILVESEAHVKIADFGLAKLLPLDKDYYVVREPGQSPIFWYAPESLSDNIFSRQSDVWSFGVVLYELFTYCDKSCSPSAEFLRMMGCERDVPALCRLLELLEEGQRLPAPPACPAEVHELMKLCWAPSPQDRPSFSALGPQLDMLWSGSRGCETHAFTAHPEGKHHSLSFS

[7] = biological target: 5'-AMP-activated protein kinase catalytic subunit alpha-1 (Homo sapiens) (UniProt Q13131); experiment: Inhibition of recombinant full length human AMPKalpha1 assessed as residual activity at 1 uM using AMARAASAAALAR as substrate incubated for 40 mins in presence of [gamma-33ATP] by scintillation counting based radiometry assay relative to control
[8] = species: Homo sapiens; experiment: Inhibition of recombinant human MER H628Q/R794A mutant (557 to 882 residues) assessed as residual activity at 1 uM using GGMEDIYFEFMGGKKK as substrate incubated for 40 mins in presence of [gamma-33ATP by scintillation counting based radiometry assay relative to control
[9] = biological target: Calcium/calmodulin-dependent protein kinase type 1G (Homo sapiens) (UniProt Q96NX5); experiment: Inhibition of recombinant full length human CaMKIgamma assessed as residual activity at 1 uM using KKLRRTLSFAEPG as substrate incubated for 40 mins in presence of [gamma-33ATP] by scintillation counting based radiometry assay relative to control
Sequence of Calcium/calmodulin-dependent protein kinase type 1G (Homo sapiens) (Q96NX5 whole entry, the tested form may be a part): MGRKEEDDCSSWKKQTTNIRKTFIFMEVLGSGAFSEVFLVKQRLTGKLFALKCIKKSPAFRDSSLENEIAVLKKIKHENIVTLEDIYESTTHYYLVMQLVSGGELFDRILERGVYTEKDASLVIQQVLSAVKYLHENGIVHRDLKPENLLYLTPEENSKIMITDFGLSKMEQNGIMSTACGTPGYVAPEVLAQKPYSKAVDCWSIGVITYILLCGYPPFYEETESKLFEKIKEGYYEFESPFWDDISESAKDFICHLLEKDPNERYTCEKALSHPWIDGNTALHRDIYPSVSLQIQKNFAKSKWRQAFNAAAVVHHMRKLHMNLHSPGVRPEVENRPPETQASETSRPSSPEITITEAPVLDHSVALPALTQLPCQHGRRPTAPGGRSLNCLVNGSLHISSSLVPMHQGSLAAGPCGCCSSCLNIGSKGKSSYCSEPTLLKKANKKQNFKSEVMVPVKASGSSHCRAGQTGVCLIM

[10] = biological target: Receptor-interacting serine/threonine-protein kinase 2 (Homo sapiens) (UniProt O43353); experiment: Inhibition of recombinant human RIPK2 (1 to 299 residues) assessed as residual activity at 1 uM using myelin basic protein as substrate measured after 120 mins in presence of [gamma33P]ATP by scintillation counting method relative to control
[11] = biological target: Dual specificity protein kinase CLK2 (Homo sapiens) (UniProt P49760); experiment: Inhibition of recombinant human CLK2 (138 to end residues) assessed as residual activity at 1 uM using YRRAAVPPSPSLSRHSSPHQS(p)EDEEE as substrate incubated 40 mins in presence of [gamma-33ATP] by scintillation counting based radiometry assay relative to control
[12] = tested on: RAF proto-oncogene serine/threonine-protein kinase (Homo sapiens), P04049 [Y340D,Y341D]; experiment: Inhibition of recombinant human C-Raf Y340D/Y341D double mutant (306 to end residues) assessed as residual activity at 1 uM poly(Glu, Tyr) 4:1 as substrate incubated 40 mins in presence of [gamma-33ATP] by scintillation counting based radiometry assay relative to control
[13] = biological target: Serine/threonine-protein kinase 25 (Homo sapiens) (UniProt O00506); experiment: Inhibition of human STK25 (1 to 308 residues) assessed as residual activity at 1 uM using RLGRDKYKTLRQIRQ as substrate measured after 40 mins in presence of [gamma33P]ATP by scintillation counting method relative to control
[14] = biological target: Serine/threonine-protein kinase Chk2 (Homo sapiens) (UniProt O96017); experiment: Inhibition of recombinant human CHK2 (5 to end residues) assessed as residual activity at 1 uM using KKKVSRSGLYRSPSMPENLNRPR as substrate incubated for 40 mins in presence of [gamma-33ATP] by scintillation counting based radiometry assay relative to control
Sequence of Serine/threonine-protein kinase Chk2 (Homo sapiens) (O96017 whole entry): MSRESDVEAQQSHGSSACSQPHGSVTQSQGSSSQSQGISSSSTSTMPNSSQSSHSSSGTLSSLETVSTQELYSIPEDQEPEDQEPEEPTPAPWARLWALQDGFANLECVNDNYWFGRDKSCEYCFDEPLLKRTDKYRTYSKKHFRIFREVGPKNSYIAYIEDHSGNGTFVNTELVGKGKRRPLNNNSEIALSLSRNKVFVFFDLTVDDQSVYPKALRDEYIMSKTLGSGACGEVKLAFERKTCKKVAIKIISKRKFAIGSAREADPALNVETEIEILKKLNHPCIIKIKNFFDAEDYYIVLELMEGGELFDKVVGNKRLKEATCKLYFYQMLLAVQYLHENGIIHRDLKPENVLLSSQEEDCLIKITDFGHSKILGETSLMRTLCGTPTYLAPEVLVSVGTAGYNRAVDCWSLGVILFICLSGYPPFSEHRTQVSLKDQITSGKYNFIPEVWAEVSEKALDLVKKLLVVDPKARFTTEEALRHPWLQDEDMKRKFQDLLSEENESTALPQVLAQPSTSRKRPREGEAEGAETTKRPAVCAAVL

[15] = tested on: RAC-gamma serine/threonine-protein kinase (Homo sapiens), Q9Y243 [S472D]; experiment: Inhibition of recombinant human PKBgamma S472D mutant (117 to end residues) assessed as residual activity at 1 uM using GRPRTSSFAEGKK as substrate incubated for 40 mins in presence of [gamma33P]ATP by scintillation counting based radiometry assay relative to control
Sequence of RAC-gamma serine/threonine-protein kinase (Homo sapiens), Q9Y243 [S472D] (Q9Y243 whole entry S472D, the tested form may be a part): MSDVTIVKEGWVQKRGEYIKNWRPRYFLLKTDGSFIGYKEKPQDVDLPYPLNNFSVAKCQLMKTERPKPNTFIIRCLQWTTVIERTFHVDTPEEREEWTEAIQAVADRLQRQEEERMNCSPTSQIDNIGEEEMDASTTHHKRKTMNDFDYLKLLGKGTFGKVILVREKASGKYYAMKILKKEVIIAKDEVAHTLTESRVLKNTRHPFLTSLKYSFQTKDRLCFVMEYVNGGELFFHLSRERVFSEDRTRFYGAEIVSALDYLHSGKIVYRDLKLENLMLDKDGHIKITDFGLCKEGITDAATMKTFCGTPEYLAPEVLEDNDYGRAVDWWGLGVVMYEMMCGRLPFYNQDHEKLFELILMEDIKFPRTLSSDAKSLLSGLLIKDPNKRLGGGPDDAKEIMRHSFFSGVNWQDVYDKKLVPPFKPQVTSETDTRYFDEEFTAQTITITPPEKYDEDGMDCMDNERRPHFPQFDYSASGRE

[16] = tested on: SNF-related serine/threonine-protein kinase (Homo sapiens), Q9NRH2 [UNDEFINED MUTATION]; experiment: Inhibition of human SNRK E97G/P116A mutant (65 to 409 residues) assessed as residual activity at 1 uM using KKLRRTLSFAEPG as substrate measured after 40 mins in presence of [gamma33P]ATP by scintillation counting method relative to control
Sequence of SNF-related serine/threonine-protein kinase (Homo sapiens), Q9NRH2 [UNDEFINED MUTATION] (Q9NRH2 whole entry, looked up, stated change not applied, the tested form may be a part): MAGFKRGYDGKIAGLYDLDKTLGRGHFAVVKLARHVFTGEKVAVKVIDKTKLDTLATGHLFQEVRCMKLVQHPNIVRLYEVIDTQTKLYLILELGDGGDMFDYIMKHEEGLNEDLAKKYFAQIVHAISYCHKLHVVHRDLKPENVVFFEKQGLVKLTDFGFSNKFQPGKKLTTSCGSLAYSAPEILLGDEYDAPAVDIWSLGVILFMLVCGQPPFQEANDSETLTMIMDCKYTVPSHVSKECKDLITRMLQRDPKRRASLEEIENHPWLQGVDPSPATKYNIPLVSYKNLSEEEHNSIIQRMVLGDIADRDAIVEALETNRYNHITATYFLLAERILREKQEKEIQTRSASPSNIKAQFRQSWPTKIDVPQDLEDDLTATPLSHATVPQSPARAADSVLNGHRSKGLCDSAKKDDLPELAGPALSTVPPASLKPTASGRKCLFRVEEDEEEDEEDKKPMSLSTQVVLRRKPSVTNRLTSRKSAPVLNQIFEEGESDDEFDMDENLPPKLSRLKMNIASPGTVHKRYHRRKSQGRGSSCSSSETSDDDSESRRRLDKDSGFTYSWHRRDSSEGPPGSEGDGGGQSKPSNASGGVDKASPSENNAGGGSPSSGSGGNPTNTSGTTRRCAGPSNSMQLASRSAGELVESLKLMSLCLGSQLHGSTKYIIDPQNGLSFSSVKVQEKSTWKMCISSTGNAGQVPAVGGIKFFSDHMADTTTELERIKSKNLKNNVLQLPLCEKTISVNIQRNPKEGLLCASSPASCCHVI

[17] = biological target: Platelet-derived growth factor receptor alpha (Homo sapiens) (UniProt P16234); experiment: Inhibition of human PDGFRalpha (550 to end residues) assessed as residual activity at 1 uM poly(Glu, Tyr) 4:1 as substrate measured after 40 mins in presence of [gamma33P]ATP by scintillation counting method relative to control
Sequence of Platelet-derived growth factor receptor alpha (Homo sapiens) (P16234 whole entry): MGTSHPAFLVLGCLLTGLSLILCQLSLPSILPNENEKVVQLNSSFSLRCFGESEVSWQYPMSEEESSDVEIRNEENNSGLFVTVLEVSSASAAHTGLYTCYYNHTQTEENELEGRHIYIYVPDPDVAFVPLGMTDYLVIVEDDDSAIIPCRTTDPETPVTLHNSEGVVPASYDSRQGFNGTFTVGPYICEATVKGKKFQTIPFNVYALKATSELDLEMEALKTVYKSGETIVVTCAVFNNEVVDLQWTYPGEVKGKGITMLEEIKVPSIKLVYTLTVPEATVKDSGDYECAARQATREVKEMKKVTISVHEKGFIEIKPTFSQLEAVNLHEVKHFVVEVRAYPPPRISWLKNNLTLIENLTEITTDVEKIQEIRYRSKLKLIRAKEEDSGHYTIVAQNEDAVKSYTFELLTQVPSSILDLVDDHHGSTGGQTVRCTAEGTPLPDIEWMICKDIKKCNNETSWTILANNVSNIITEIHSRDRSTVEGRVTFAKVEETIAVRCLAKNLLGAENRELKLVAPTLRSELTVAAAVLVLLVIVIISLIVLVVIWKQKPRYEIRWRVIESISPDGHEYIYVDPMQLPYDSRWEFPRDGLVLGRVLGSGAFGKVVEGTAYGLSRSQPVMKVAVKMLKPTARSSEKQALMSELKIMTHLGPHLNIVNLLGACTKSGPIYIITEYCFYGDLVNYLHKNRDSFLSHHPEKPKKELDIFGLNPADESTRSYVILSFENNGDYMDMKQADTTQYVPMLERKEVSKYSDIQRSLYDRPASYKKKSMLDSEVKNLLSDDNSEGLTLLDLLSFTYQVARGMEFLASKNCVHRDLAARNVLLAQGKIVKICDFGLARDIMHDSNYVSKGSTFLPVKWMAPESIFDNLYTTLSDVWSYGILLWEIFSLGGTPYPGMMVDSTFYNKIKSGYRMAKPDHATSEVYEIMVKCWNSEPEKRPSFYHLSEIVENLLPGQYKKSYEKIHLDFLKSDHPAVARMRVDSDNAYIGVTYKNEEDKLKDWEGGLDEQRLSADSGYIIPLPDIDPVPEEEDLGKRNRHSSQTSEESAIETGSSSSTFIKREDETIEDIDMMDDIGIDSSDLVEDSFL

[18] = biological target: Serine-protein kinase ATM (Homo sapiens) (UniProt Q13315); experiment: Inhibition of recombinant full-length human ATM at 1 uM assessed as residual activity at 1 uM using GST-cMyc-p53 as substrate measured after 40 mins by ELISA
[19] = biological target: Serine/threonine-protein kinase ICK (Homo sapiens) (UniProt Q9UPZ9); experiment: Inhibition of human ICK (1 to 312 residues) assessed as residual activity at 1 uM using RRRFRPASPLRGPPK as substrate after 40 mins by [gamma-33ATP] radiometric assay relative to control
[20] = biological target: Dual specificity protein kinase CLK1 (Homo sapiens) (UniProt P49759); experiment: Inhibition of recombinant human CLK1 (130 to end residues) assessed as residual activity at 1 uM using ERMRPRKRQGSVR as substrate incubated 40 mins in presence of [gamma-33ATP] by scintillation counting based radiometry assay relative to control
Sequence of Dual specificity protein kinase CLK1 (Homo sapiens) (P49759 whole entry, looked up): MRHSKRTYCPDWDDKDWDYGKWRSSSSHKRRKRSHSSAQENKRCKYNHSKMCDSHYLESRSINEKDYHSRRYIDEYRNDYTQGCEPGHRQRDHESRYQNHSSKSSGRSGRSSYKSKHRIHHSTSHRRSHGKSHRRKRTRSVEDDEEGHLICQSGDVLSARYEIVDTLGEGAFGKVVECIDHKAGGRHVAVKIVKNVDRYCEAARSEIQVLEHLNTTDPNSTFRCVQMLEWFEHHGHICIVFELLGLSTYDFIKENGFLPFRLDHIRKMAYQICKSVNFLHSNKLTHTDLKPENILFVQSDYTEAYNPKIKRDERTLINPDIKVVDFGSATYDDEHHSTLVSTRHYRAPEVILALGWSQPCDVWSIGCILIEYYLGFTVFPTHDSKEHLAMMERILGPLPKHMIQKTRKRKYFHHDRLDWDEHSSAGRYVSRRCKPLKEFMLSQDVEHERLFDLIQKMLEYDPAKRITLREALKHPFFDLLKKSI

[21] = biological target: Tyrosine-protein kinase receptor TYRO3 (Homo sapiens) (UniProt Q06418); experiment: Inhibition of recombinant human RSE (451 to end residues) assessed as residual activity at 1 uM using KVEKIGEGTYGVVYK as substrate measured after 40 mins in presence of [gamma33P]ATP by scintillation counting method relative to control

SMILES	Activity [1]	Activity [2]	Activity [3]	Activity [4]	Activity [5]	Activity [6]	Activity [7]	Activity [8]	Activity [9]	Activity [10]	Activity [11]	Activity [12]	Activity [13]	Activity [14]	Activity [15]	Activity [16]	Activity [17]	Activity [18]	Activity [19]	Activity [20]	also measured
N=C1NC(=O)/C(=C\c2ccc(-c3cccc([N+](=O)[O-])c3)o2)S1	83%	37%	97%	105%	83%	102%	44%	97%	99%	66%	39%	98%	97%	94%	100%	110%	104%	102%	18%	50%	Activity [21]: 110%
C=CCOC(=O)c1cc(-c2ccc(/C=C3/NC(=S)NC3=O)o2)ccc1Cl	90%	89%	98%	111%	92%	104%	24%	101%	92%	62%	38%	85%	90%	92%	72%	83%	92%	100%	28%	26%	Activity [21]: 100%
